Reference: patent US20230203026A1, “PESTICIDAL COMPOSITIONS AND METHODS” (CORTEVA AGRISCIENCE LLC, priority 2017, published 2023)

Key:
[1] = tested on: beet armyworm (Spodoptera exigua, LAPHEG) ("BAW"); assay: Insecticidal test for beet armyworm, 128-well diet tray assay; format: in vivo; conditions: 168 h, 50 μg/cm^2 of test compound on artificial diet, second instar BAW larvae, 25° C., five to seven days, average of eight wells, read-out: BAW % Control (or Mortality) rating
Description: Insecticidal test for beet armyworm (Spodoptera exigua, LAPHEG) (“BAW”)
(§1) Bioassays on beet armyworm (BAW; Spodoptera exigua: Lepidoptera) are conducted using a 128-well diet tray assay. One to five second instar BAW larvae are placed in each well (3 mL) of the diet tray that had been previously filled with 1 mL of artificial diet to which 50 μg/cm^2 of the test compound (dissolved in 50 μL of 90:10 acetone-water mixture) had been applied (to each of eight wells) and then allowed to dry. Trays are covered with a clear self-adhesive cover, vented to allow gas exchange, and held at 25° C., 14:10 light-dark for five to seven days. Percent mortality is recorded for the larvae in each well; activity in the eight wells is then averaged.

[2] = tested on: Cabbage Looper (Trichloplusia ni, TRIPNI) ("CL"); assay: Insecticidal test for cabbage looper, 128-well diet tray assay; format: in vivo; conditions: Trichoplusia ni, 168 h; 50 μg/cm^2 of test compound on artificial diet; second instar CL larvae; 25° C.; five to seven days; average of eight wells; read-out: CL % Control (or Mortality) rating
Description: Insecticidal Test for Cabbage Looper (Trichloplusia ni, TRIPNI) (“CL”)
as §1, with “cabbage looper (CL; Trichloplusia ni:” for “beet armyworm (BAW; Spodoptera exigua:”, “CL” for “BAW”

Row | Structure (SMILES) | mortality at 50 µg/cm2 [1] [%] | mortality at 50 µg/cm2 [2] [%]
1 | CC(C)c1ccc(Cl)cc1N1C(=O)CS/C1=N\C(=O)NOC(C)c1ccc(-c2ncn(-c3ccc(OC(F)(F)F)cc3)n2)cc1 (stereo not shown) [A21, (Z)-1-(3-(5-Chloro-2-isopropylphenyl)-4-oxothiazolidin-2-ylidene)-3-(1-(4-(1-(4-(trifluoromethoxy)phenyl)-1H-1,2,4-triazol-3-yl)phenyl)ethoxy)urea] | 50 to 100 | 50 to 100
2 | Cc1ccc(C(F)(F)F)c(N2C(=O)CS/C2=N\C(=O)NOCc2ccc(-c3ncn(-c4ccc(OC(F)(F)F)cc4)n3)cc2)c1 [A24, (Z)-1-(3-(5-Methyl-2-(trifluoromethyl)phenyl)-4-oxothiazolidin-2-ylidene)-3-((4-(1-(4-(trifluoromethoxy)phenyl)-1H-1,2,4-triazol-3-yl)benzyl)oxy)urea] | 50 to 100 | 50 to 100
3 | CCCc1ccc(C)cc1N1C(=O)CS/C1=N\C(=O)NOCc1ccc(-c2ncn(-c3ccc(OC(F)(F)F)cc3)n2)cc1 [A10, (Z)-1-(3-(5-methyl-2-propylphenyl)-4-oxothiazolidin-2-ylidene)-3-((4-(1-(4-(trifluoromethoxy)phenyl)-1H-1,2,4-triazol-3-yl)benzyl)oxy)urea] | 50 to 100 | 50 to 100
4 | Cc1ccc(Cl)c(N2C(=O)CS/C2=N\C(=O)NOCc2ccc(-c3ncn(-c4ccc(OC(F)(F)F)cc4)n3)cc2)c1 [A22, (Z)-1-(3-(2-Chloro-5-methylphenyl)-4-oxothiazolidin-2-ylidene)-3-((4-(1-(4-(trifluoromethoxy)phenyl)-1H-1,2,4-triazol-3-yl)benzyl)oxy)urea] | 50 to 100 | 50 to 100
5 | Cc1ccc(Cl)c(N2C(=O)CS/C2=N\C(=O)NOC(C)c2ccc(-c3ncn(-c4ccc(OC(F)(F)F)cc4)n3)cc2)c1 (stereo not shown) [A11, (Z)-1-(3-(2-Chloro-5-methylphenyl)-4-oxothiazolidin-2-ylidene)-3-(1-(4-(1-(4-(trifluoromethoxy)phenyl)-1H-1,2,4-triazol-3-yl)phenyl)ethoxy)urea] | 50 to 100 | 50 to 100
6 | CC(C)c1ccccc1N1C(=O)CS/C1=N\C(=O)NOCc1ccc(-c2ncn(-c3ccc(OC(F)(F)F)cc3)n2)cc1 [A29, (Z)-1-(3-(2-Isopropylphenyl)-4-oxothiazolidin-2-ylidene)-3-((4-(1-(4-(trifluoromethoxy)phenyl)-1H-1,2,4-triazol-3-yl)benzyl)oxy)urea] | 50 to 100 | 50 to 100
7 | Cc1ccc(C(C)C)c(N2C(=O)CS/C2=N\C(=O)NOC(C)c2ccc(-c3ncn(-c4ccc(OC(F)(F)C(F)(F)F)cc4)n3)cc2)c1 (stereo not shown) [A34, (Z)-1-(3-(2-Isopropyl-5-methylphenyl)-4-oxothiazolidin-2-ylidene)-3-(1-(4-(1-(4-(perfluoroethoxy)phenyl)-1H-1,2,4-triazol-3-yl)phenyl)ethoxy)urea] | 50 to 100 | 50 to 100
8 | Cc1ccc(C(C)C)c(N2C(=O)CS/C2=N\C(=O)NOCc2ccc(-c3ncn(-c4ccc(OC(F)(F)F)cc4)n3)cc2)c1 [A28, (Z)-1-(3-(2-Isopropyl-5-methylphenyl)-4-oxothiazolidin-2-ylidene)-3-((4-(1-(4-(trifluoromethoxy)phenyl)-1H-1,2,4-triazol-3-yl)benzyl)oxy)urea] | 50 to 100 | 50 to 100
